Experimental data published in patent US20110021565A1, “PIPERIDINE DERIVATIVES AS NK3 ANTAGONISTS” (priority 2007, published 2011).
Where two headings read alike, the source gives them in different places.

Target: T1, recombinant human NK3 receptor (Homo sapiens, UniProt P29371)
T1 construct: expressed in transfected cells; host or cells: HEK293 cells, transient expression; membrane preparation
T1 sequence (P29371 1-465): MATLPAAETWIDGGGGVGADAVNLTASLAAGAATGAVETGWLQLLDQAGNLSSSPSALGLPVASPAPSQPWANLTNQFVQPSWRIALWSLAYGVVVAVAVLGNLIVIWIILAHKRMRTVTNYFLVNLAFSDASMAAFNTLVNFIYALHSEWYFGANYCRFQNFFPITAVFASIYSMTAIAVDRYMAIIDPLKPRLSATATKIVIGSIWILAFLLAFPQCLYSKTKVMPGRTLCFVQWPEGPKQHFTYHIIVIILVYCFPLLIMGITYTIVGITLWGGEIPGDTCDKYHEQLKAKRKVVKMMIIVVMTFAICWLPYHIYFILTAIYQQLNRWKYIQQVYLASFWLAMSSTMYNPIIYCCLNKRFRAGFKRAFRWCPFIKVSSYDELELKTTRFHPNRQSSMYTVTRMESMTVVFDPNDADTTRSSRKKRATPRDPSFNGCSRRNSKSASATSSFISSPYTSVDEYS
Test: [3H]SR142801 competition binding assay
Procedure, shortened: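 Ki derived by Cheng-Prusoff from Hill-fitted IC50 curves, duplicates, 10 μM SB222200 defining nonspecific binding. Radioligand used at KD concentration against compound at 0.0003-10 μM; transiently transfected HEK293 membranes, 5 μg/well, 75 min room temperature, Tris-HCl/MnCl2/phosphoramidon/BSA pH 7.4. Filter-bound counts read by scintillation.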

[1] = [3H]SR142801, membranes of HEK293 cells transiently expressing recombinant human NK3 receptor, read-out: hNK3 Ki
[2] = representative compounds, [3H]SR142801, HEK293 membranes, human NK3 receptor, read-out: Ki NK3 h

| Structure (SMILES) | Ki [1] [nM] | Ki [2] [nM] |
| --- | --- | --- |
| CC(NC(=O)C(C)(CCN1CCC(NS(C)(=O)=O)CC1)c1ccc(Cl)c(Cl)c1)c1ccc(Cl)c(Cl)c1 (centres unmarked) [Example 19, 2-(3,4-Dichloro-phenyl)-N-[1-(3,4-dichloro-phenyl)-ethyl]-4-(4-methanesulfonyl-amino-piperidin-1-yl)-2-methyl-butyramide] | 59.9 | – |
| CN(Cc1ccc(F)c(C(F)(F)F)c1)C(=O)C(C)(CCN1CCC(N(C)S(C)(=O)=O)CC1)c1ccc(Cl)c(Cl)c1 (centres unmarked) [Example 47, 2-(3,4-Dichloro-phenyl)-N-(4-fluoro-3-trifluoromethyl-benzyl)-4-[4-(methanesulfonyl-methyl-amino)-piperidin-1-yl]-2,N-dimethyl-butyramide] | 2.1 | 2.1 |
| CC(CCN1CCC(NS(C)(=O)=O)CC1)(C(=O)NCc1ccc(C(F)(F)F)cc1)c1ccc(Cl)c(Cl)c1 (centres unmarked) [Example 14, 2-(3,4-Dichloro-phenyl)-4-(4-methanesulfonyl-amino-piperidin-1-yl)-2-methyl-N-(4-trifluoromethyl-benzyl)-butyramide] | 58 | – |
| CCN(C1CCN(CCC(C)(C(=O)N[C@H](CO)c2ccc(Cl)c(Cl)c2)c2ccc(Cl)c(Cl)c2)CC1)S(C)(=O)=O (single isomer, unassigned; diastereoisomer 2) [Example 80, 2-(3,4-Dichloro-phenyl)-N-[1-(3,4-dichloro-phenyl)-2-hydroxy-ethyl]-4-[4-(ethyl-methanesulfonyl-amino)-piperidin-1-yl]-2-methyl-butyramide; diastereoisomer 2] | 13.3 | – |
| CC(CCN1CCC(N2CCCC2=O)CC1)(C(=O)NC(c1ccc(F)cc1)C(F)(F)F)c1ccc(Cl)c(Cl)c1 (centres unmarked) [Example 96, 2-(3,4-Dichloro-phenyl)-2-methyl-4-[4-(2-oxo-pyrrolidin-1-yl)-piperidin-1-yl]-N-[2,2,2-trifluoro-1-(4-fluoro-phenyl)-ethyl]-butyramide] | 7.2 | 7.2 |
| Cc1ccc(CN(C)C(=O)C(C)(CCN2CCC(N3CCCC3=O)CC2)c2ccc(Cl)c(Cl)c2)cc1 (centres unmarked) [Example 89, 2-(3,4-Dichloro-phenyl)-2,N-dimethyl-N-(4-methyl-benzyl)-4-[4-(2-oxo-pyrrolidin-1-yl)-piperidin-1-yl]-butyramide] | 5.3 | 5.3 |
| CC(CCN1CCC(N2CCCC2=O)CC1)(C(=O)NCc1ccc(F)c(C(F)(F)F)c1)c1ccc(Cl)c(Cl)c1 (centres unmarked) [Example 131, 2-(3,4-Dichloro-phenyl)-N-(4-fluoro-3-trifluoromethyl-benzyl)-2-methyl-4-[4-(2-oxo-pyrrolidin-1-yl)-piperidin-1-yl]-butyramide] | 3.4 | 3.4 |
| COc1ccc(C(CCN2CCC(N3CCCC3=O)CC2)C(=O)N(C)Cc2ccc(Cl)cc2)cc1 (centres unmarked) [Example 113, N-(4-Chloro-benzyl)-2-(4-methoxy-phenyl)-N-methyl-4-[4-(2-oxo-pyrrolidin-1-yl)-piperidin-1-yl]-butyramide] | 775 | – |
| CN(Cc1ccc(C(F)(F)F)cc1)C(=O)C(CCN1CCC(NS(C)(=O)=O)CC1)c1ccc(Cl)c(Cl)c1 (centres unmarked) [Example 33, 2-(3,4-Dichloro-phenyl)-4-(4-methanesulfonyl-amino-piperidin-1-yl)-N-methyl-N-(4-trifluoromethyl-benzyl)-butyramide] | 81.6 | – |
| COCCN(C(C)=O)C1CCN(CCC(C)(C(=O)N[C@@H](CO)c2ccc(F)cc2)c2ccc(Cl)c(Cl)c2)CC1 (single isomer, unassigned) [Example 150, 4-{4-[Acetyl-(2-methoxy-ethyl)-amino]-piperidin-1-yl}-2-(3,4-dichloro-phenyl)-N-[(R)-1-(4-fluoro-phenyl)-2-hydroxy-ethyl]-2-(R or S) methyl-butyramide] | 1.7 | 1.7 |
| CC[C@H](NC(=O)C(C)(CCN1CCC(N(CCOC)C(C)=O)CC1)c1ccc(Cl)c(Cl)c1)c1ccccc1 (stereo partly drawn) [Example 152, 4-{4-[Acetyl-(2-methoxy-ethyl)-amino]-piperidin-1-yl}-2-(3,4-dichloro-phenyl)-2-methyl-N-((S)-1-phenyl-propyl)-butyramide] | 1.1 | 1.1 |
| COCCN(C(C)=O)C1CCN(CCC(C)(C(=O)N[C@H](CO)c2ccc(Cl)c(Cl)c2)c2ccc(Cl)c(Cl)c2)CC1 (stereo partly drawn) [Example 149, 4-{4-[Acetyl-(2-methoxy-ethyl)-amino]-piperidin-1-yl}-2-(3,4-dichloro-phenyl)-N-[(S)-1-(3,4-dichloro-phenyl)-2-hydroxy-ethyl]-2-methyl-butyramide (diastreoisomer 2)] | 19.4 | – |
| CN(Cc1ccc(Cl)c(Cl)c1)C(=O)C(C)(CCN1CCC(NS(C)(=O)=O)CC1)c1ccc(Cl)c(Cl)c1 (centres unmarked) [Example 10, N-(3,4-Dichloro-benzyl)-2-(3,4-dichloro-phenyl)-4-(4-methanesulfonyl-amino-piperidin-1-yl)-2,N-dimethyl-butyramide] | 24 | – |
| CN(C1CCN(CCC(C)(C(=O)NC(c2ccccc2)C(F)(F)F)c2ccc(Cl)c(Cl)c2)CC1)S(C)(=O)=O (centres unmarked) [Example 51, 2-(3,4-Dichloro-phenyl)-4-[4-(methanesulfonyl-methyl-amino)-piperidin-1-yl]-2-methyl-N-(2,2,2-trifluoro-1-phenyl-ethyl)-butyramide] | 18.7 | – |
| CC(=O)N(C)C1CCN(CCC(C)(C(=O)N[C@@H](CO)c2ccc(Cl)c(Cl)c2)c2ccc(Cl)c(Cl)c2)CC1 (single isomer, unassigned; diastereoisomer 1) [Example 109, 4-[4-(Acetyl-methyl-amino)-piperidin-1-yl]-2-(3,4-dichloro-phenyl)-N-[1-(3,4-dichloro-phenyl)-2-hydroxy-ethyl]-2-methyl-butyramide; diastereoisomer 1] | 5.6 | 5.6 |
| CC(=O)NC1CCN(CCC(C)(C(=O)N[C@H](CO)c2ccc(F)cc2)c2ccc(Cl)c(Cl)c2)CC1 (single isomer, unassigned; diastereoisomer 2) [Example 155, 4-(4-Acetylamino-piperidin-1-yl)-2-(3,4-dichloro-phenyl)-N-[1-(4-fluoro-phenyl)-2-hydroxy-ethyl]-2-methyl-butyramide (diastereoisomer 2)] | 13.8 | – |
| CN(Cc1ccc(Cl)c(C(F)(F)F)c1)C(=O)C(CCN1CCC(NS(C)(=O)=O)CC1)c1ccc(Cl)c(Cl)c1 (centres unmarked) [Example 35, N-(4-Chloro-3-trifluoromethyl-benzyl)-2-(3,4-dichloro-phenyl)-4-(4-methanesulfonyl-amino-piperidin-1-yl)-N-methyl-butyramide] | 149 | – |
| CC(CCN1CCC(N2CCCC2=O)CC1)(C(=O)N[C@@H](CO)c1ccc(Cl)c(Cl)c1)c1ccc(Cl)c(Cl)c1 (single isomer, unassigned; diastereoisomer 1) [Example 94, 2-(3,4-Dichloro-phenyl)-N-[-1-(3,4-dichloro-phenyl)-2-hydroxy-ethyl]-2-methyl-4-[4-(2-oxo-pyrrolidin-1-yl)-piperidin-1-yl]-butyramide; diastereoisomer 1] | 3 | 3 |
| CC(CCN1CCC(N2CCCC2=O)CC1)(C(=O)NC(c1ccccc1)C(F)(F)F)c1ccc(Cl)c(Cl)c1 (centres unmarked) [Example 95, 2-(3,4-Dichloro-phenyl)-2-methyl-4-[4-(2-oxo-pyrrolidin-1-yl)-piperidin-1-yl]-N-(2,2,2-trifluoro-1-phenyl-ethyl)-butyramide] | 4.7 | 4.7 |
| Cc1ccc(CN(C)C(=O)C(F)(CCN2CCC(NS(C)(=O)=O)CC2)c2ccc(Cl)c(Cl)c2)cc1 (centres unmarked) [Example 67, 2-(3,4-Dichloro-phenyl)-2-fluoro-4-(4-methanesulfonyl-amino-piperidin-1-yl)-N-methyl-N-(4-methyl-benzyl)-butyramide] | 323 | – |
| CN(Cc1ccc(F)c(C(F)(F)F)c1)C(=O)C(C)(CCN1CCC(N2CCCC2=O)CC1)c1ccc(Cl)c(Cl)c1 (centres unmarked) [Example 86, 2-(3,4-Dichlorophenyl)-N-(4-fluoro-3-trifluoromethyl-benzyl)-2,N-dimethyl-4-[4-(2-oxo-pyrrolidin-1-yl)-piperidin-1-yl]-butyramide] | 1.4 | 1.4 |
| CC(=O)N(C)C1CCN(CCC(C)(C(=O)N(C)Cc2cccc(Cl)c2)c2ccc(Cl)c(Cl)c2)CC1 (centres unmarked) [Example 105, 4-[4-(Acetyl-methyl-amino)-piperidin-1-yl]-N-(3-chloro-benzyl)-2-(3,4-dichloro-phenyl)-2,N-dimethyl-butyramide] | 8.7 | 8.7 |
| CC(NC(=O)C(C)(CCN1CCC(N2CCCC2=O)CC1)c1ccc(Cl)c(Cl)c1)c1ccc(F)c(C(F)(F)F)c1 (centres unmarked) [Example 125, 2-(3,4-Dichloro-phenyl)-N-[1-(4-fluoro-3-trifluoromethyl-phenyl)-ethyl]-2-methyl-4-[4-(2-oxo-pyrrolidin-1-yl)-piperidin-1-yl]-butyramide] | 25.4 | – |
| CN(Cc1ccc(C(F)(F)F)cc1)C(=O)C(F)(CCN1CCC(NS(C)(=O)=O)CC1)c1ccc(Cl)c(Cl)c1 (centres unmarked) [Example 66, 2-(3,4-Dichloro-phenyl)-2-fluoro-4-(4-methanesulfonyl-amino-piperidin-1-yl)-N-methyl-N-(4-trifluoromethyl-benzyl)-butyramide] | 84.3 | – |
